Measurements reported in patent US10253045B2, “Crystalline forms of a therapeutic compound and uses thereof” (Kala Pharmaceuticals, Inc., priority 2014, dated 2019).
In brackets after ≈: the same amount, converted by molar mass.

Legend:
[1] = Wet milling to nanocrystals: particle size and crystal form stability (XRPD); assay type: physicochemical; settings: XRPD of milled samples compared with neat form
Procedure: Crystalline Forms of Compound 5 were wet-milled in the presence of stabilizers that enable the preparation of mucus-penetrating particles (MPP) or nanocrystals. The same milling process was employed for all samples. Milling media, specifically 0.5 mL bulk volume of 1-mm ceria-stabilized zirconium oxide beads, was added to a glass vial. Approximately 25 mg of Compound 5 Crystalline Form I or Crystalline Form II and 0.475 mL of milling solution, as specified in each example, were then added to the vial yielding a slurry of 5% Compound 5. A magnetic stir bar was used to agitate the beads, stirring at approximately 500 rpm.
Neat Crystalline Form I of Compound 5 synthesized according to Example 1 was wet-milled in the presence of PLURONIC® F127 (also known as Poloxamer 407) or polyvinyl alcohol with an average MW of 31 kDa and average hydrolysis of 88% (PVA), and a buffer.
Loss of crystallinity and possible form change to amorphous and Crystalline Form II occurred during milling.
Neat Crystalline Form II of Compound 5 prepared in accordance with Example 2 was wet-milled the presence of PLURONIC® F127 (also known as Poloxamer 407) and a buffer.
Approximately 100 μL of Sample A was transferred directly onto the surface of the sample XRPD holder, then was allowed to air dry.

[2] = Thermodynamic aqueous solubility; assay type: physicochemical; settings: for Equilibrated form in suspension: XRPD of equilibrated solids after the solubility measurement in water, ambient temperature
Procedure: The thermodynamic solubility values of Compound 5 using Crystalline Forms I and II as starting forms were determined in water. In one vial, 10 mg of Crystalline Form I of Compound 5 and 1 mL of water were stirred at ambient temperature for 24 hours at 400 RPM. In a separate vial, 10 mg of Crystalline Form II of Compound 5 was suspended in 1 mL of water, and then the suspension was stirred at ambient temperature for 48 hours at 200 RPM. The equilibrated solids were then separated by dispensing 500 μL of the suspension into a 1.5-mL centrifuge tube, and then centrifuged for 5 minutes at 13,200 RPM using an Eppendorf 5415D centrifuge. As much of the supernatant as possible was decanted using a Pasteur pipette and dispensed into a new 1.5-mL centrifuge tube. The samples were again centrifuged for 5 minutes at 13,200 RPM using the same instrument. The Compound 5 content and pH values of the supernatant were determined by HPLC and pH meter, respectively. The pH of the supernatant was determined to be 9.16.

| SMILES | Stability of crystalline form to the milling process ([1]; listed as Crystalline Form II of Compound 5) | Equilibrated form in suspension [2] | Solubility in Water ([2]; water, ambient temperature (ca. 22° C.), 10 mg in 1 mL stirred 24 h (Form I) or 48 h (Form II), supernatant pH 9.16, HPLC) | Stability of crystalline form to the milling process ([1]; listed as Crystalline Form I of Compound 5) | Equilibrated form in suspension ([2]; listed as I) | solubility ([2]; water, 22 °C, pH 9.16, water, thermodynamic from solid, ambient temperature (ca. 22° C.), 10 mg in 1 mL stirred 24 h (Form I) or 48 h (Form II), supernatant pH 9.16, HPLC) |
| --- | --- | --- | --- | --- | --- | --- |
| Cc1cc(C(=O)Nc2cc(Oc3ccc4nc(NC(=O)CCCN5CCC6(CC5)COC6)cn4n3)ccc2C)n(C)n1 [Crystalline Form II, N-(5-((2-(4-(2-oxa-7-azaspiro[3.5]nonan-7-yl)butanamido)imidazo[1,2-b]pyridazin-6-yl)oxy)-2-methylphenyl)-1,3-dimethyl-1H-pyrazole-5-carboxamide] | stable to the milling process | stable | 15.76 µg/mL (≈ 27.5 µM) | – | – | – |
| Cc1cc(C(=O)Nc2cc(Oc3ccc4nc(NC(=O)CCCN5CCC6(CC5)COC6)cn4n3)ccc2C)n(C)n1 [Crystalline Form I, N-(5-((2-(4-(2-oxa-7-azaspiro[3.5]nonan-7-yl)butanamido)imidazo[1,2-b]pyridazin-6-yl)oxy)-2-methylphenyl)-1,3-dimethyl-1H-pyrazole-5-carboxamide] | – | converted to amorphous | – | not stable to the milling process | Amorphous | 27.8 µg/mL (≈ 48.5 µM) |
